Source: PubChem BioAssay AID292 (DTP/NCI, 2004)
“And” between values parts separate entries of the source, which are not always exact repeats. Equal values may be shown once. Toxic doses and inconclusive results are not listed.

System: B6C3F1 mice, ip Sarcoma M5076, median survival T/C
Assay: NCI In Vivo Anticancer Drug Screen. Data for tumor model Sarcoma M5076 (intraperitoneal) in B6C3F1 mice
Details: endpoint: median survival time, schedule: Q04DX004 (ip), higher = longer survival
How it was run: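 The readout is a ratio of survival in drug-treated animals to survival in animals given vehicle alone, taken in mice bearing a transplanted tumour line.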

[1] = dose: 50.0 mg/kg/injection, vehicle: saline with Tween-80
[2] = dose: 12.5 mg/kg/injection, vehicle: water
[3] = dose: 50.0 mg/kg/injection, vehicle: water
[4] = dose: 100.0 mg/kg/injection, vehicle: saline with Tween-80
[5] = dose: 400.0 mg/kg/injection, vehicle: saline with Tween-80
[6] = dose: 37.5 mg/kg/injection, vehicle: saline with Tween-80
[7] = dose: 75.0 mg/kg/injection, vehicle: saline with Tween-80
[8] = dose: 150.0 mg/kg/injection, vehicle: saline with Tween-80

## CCOC(=O)c1cc(-c2ccccc2)c(OC)c(=O)nc1-c1ccccc1
[1]
  T/C: 89 % of control

## CC[C@@]1(O)C(=O)OCc2c1cc1n(c2=O)Cc2cc3c(N)cccc3nc2-1
dose: 0.25 mg/kg/injection, vehicle: saline with Tween-80
  T/C: 121 % of control
dose: 1.0 mg/kg/injection, vehicle: saline with Tween-80
  T/C: 164 % of control and 168 % of control
dose: 2.0 mg/kg/injection, vehicle: saline with Tween-80
  T/C: 208 % of control
dose: 4.0 mg/kg/injection, vehicle: saline with Tween-80
  T/C: 177 % of control

## CC1(O)C=CC(=O)C=C1
[2]
  T/C: 104 % of control
dose: 25.0 mg/kg/injection, vehicle: water
  T/C: 102 % of control and 113 % of control
[3]
  T/C: 109 % of control and 114 % of control

## CN(C)CCNc1ccc(CO)c2sc3ccc(O)cc3c(=O)c12
[1]
  T/C: 155 % of control
[4]
  T/C: 119 % of control
[5]
  T/C: 158 % of control

## Cc1ccc(/C=C/C(=O)/C=C/c2ccc(C)o2)o1
dose: 50.0 mg/kg/injection, vehicle: other
  T/C: 101 % of control
dose: 100.0 mg/kg/injection, vehicle: other
  T/C: 109 % of control
dose: 200.0 mg/kg/injection, vehicle: other
  T/C: 108 % of control
dose: 400.0 mg/kg/injection, vehicle: other
  T/C: 101 % of control
dose: 800.0 mg/kg/injection, vehicle: other
  T/C: 95 % of control

## Clc1ccccc1C(Nc1cnccn1)Nc1cnccn1
[1]
  T/C: 105 % of control and 112 % of control
[4]
  T/C: 105 % of control
dose: 200.0 mg/kg/injection, vehicle: saline with Tween-80
  T/C: 103 % of control and 109 % of control
[5]
  T/C: 110 % of control and 114 % of control
dose: 800.0 mg/kg/injection, vehicle: saline with Tween-80
  T/C: 100 % of control

## CCn1c2ccccc2c2c3ncc4cccn4c3ccc21
[6]
  T/C: 96 % of control
[7]
  T/C: 96 % of control
[8]
  T/C: 93 % of control
dose: 300.0 mg/kg/injection, vehicle: saline with Tween-80
  T/C: 92 % of control
dose: 600.0 mg/kg/injection, vehicle: saline with Tween-80
  T/C: 89 % of control

## C/C=C/C(C)C1OC1(C)C(O)C1COC(=O)C(O)C(OC)C(C)C(=O)C(C)C(O)/C(C)=C/C(C)C(=O)CC(O)C(C)C1=O (stereo unspecified)
dose: 2.5 micrograms/kg/injection, vehicle: saline
  T/C: 97 % of control
dose: 5.0 micrograms/kg/injection, vehicle: saline
  T/C: 91 % of control
dose: 10.0 micrograms/kg/injection, vehicle: saline
  T/C: 102 % of control
dose: 20.0 micrograms/kg/injection, vehicle: saline
  T/C: 96 % of control

## O=c1c(-c2nn[nH]n2)cnc2sc3cc(Cl)ccc3n12
[6]
  T/C: 98 % of control
[7]
  T/C: 95 % of control
[8]
  T/C: 90 % of control

## Nc1nc(N)c2cc(C=O)ccc2n1
dose: 3.13 mg/kg/injection, vehicle: water
  T/C: 91 % of control and 98 % of control
dose: 6.25 mg/kg/injection, vehicle: water
  T/C: 94 % of control
[2]
  T/C: 101 % of control and 103 % of control
[3]
  T/C: 88 % of control

## CC(=O)Oc1ccccc1O
dose: 6.25 mg/kg/injection, vehicle: saline + Tween-80 + alcohol
  T/C: 112 % of control
dose: 12.5 mg/kg/injection, vehicle: saline + Tween-80 + alcohol
  T/C: 107 % of control
dose: 25.0 mg/kg/injection, vehicle: saline + Tween-80 + alcohol
  T/C: 95 % of control
dose: 50.0 mg/kg/injection, vehicle: saline + Tween-80 + alcohol
  T/C: 98 % of control
